The target of this assay is T1, human CRTH2 (Homo sapiens, UniProt Q9Y5Y4).
T1 sequence (Q9Y5Y4 1-395): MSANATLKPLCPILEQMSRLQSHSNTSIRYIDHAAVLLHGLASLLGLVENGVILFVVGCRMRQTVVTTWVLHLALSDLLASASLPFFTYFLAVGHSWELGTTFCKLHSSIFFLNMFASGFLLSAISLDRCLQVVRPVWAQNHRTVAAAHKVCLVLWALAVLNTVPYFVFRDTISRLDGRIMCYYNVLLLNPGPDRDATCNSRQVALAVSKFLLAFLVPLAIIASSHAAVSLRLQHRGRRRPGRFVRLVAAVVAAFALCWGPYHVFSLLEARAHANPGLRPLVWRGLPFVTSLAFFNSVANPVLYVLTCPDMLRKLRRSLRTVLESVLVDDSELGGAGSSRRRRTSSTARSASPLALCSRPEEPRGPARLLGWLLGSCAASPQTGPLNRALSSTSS
Description: CRTH-2 binding assay (scintillation proximity assay, inhibition of 3H-PGD2 binding). Set-up: expressed in transfected cells; host or cells: 293EBNA-hCRTH2 cells (membrane preparation). The conditions noted are these: membranes from 293EBNA-hCRTH2 cells, 3H-PGD2 3.6 nM; Ki calculated from IC50. As to the method:
A CRTH2 binding assay was developed to measure the ability of compounds to inhibit the binding of PGD2 to human CRTH2 using a scintillation proximity assay.
Membranes containing hCRTH2 receptors were prepared from 293EBNA-hCRTH2 cells (a 293EBNA cell line stably expressing human CRTH2). The cells were grown to confluency, harvested and washed with PBS. The cells were resuspended in 10 mM Hepes pH 7.4, 1 mM EDTA and protease inhibitors and incubated for 30 min on ice. The cells were homogenized and centrifuged for 10 min at 1000×g. The supernate was centrifuged for 30 min at 100,000×g and the membrane pellet was then resuspended in 10 mM Hepes pH 7.4 and 1 mM EDTA. The protein concentration of the membrane preparation was determined by Bradford assay (Bio-Rad).
The ability of compounds to inhibit the interaction of PGD2 to human CRTH2 was determined at seven compound concentrations. Compounds were serially diluted in DMSO then diluted into CRTH2 buffer (10 mM Hepes pH 7.4, 1 mM EDTA, 10 mM MnCl2) to six times the final desired concentration. 20 μL of the diluted compounds were transferred into non-surface binding 96-well plates (Corning). Each concentration was done in triplicate. In addition to test compounds, each plate contained 12 control wells. Six of these wells contained 20 μL of CRTH2 buffer. These wells were used to measure total binding. Six wells contained 20 μL of CRTH2 buffer plus 1.5 mM indomethacin. These wells were used to measure non-specific binding. Next, 293EBNA-hCRTH2 membranes were resuspended in CRTH2 buffer with glycerol (10 mM Hepes pH 7.4, 1 mM EDTA, 10 mM MnCl2, 25% glycerol) so that the final concentration was approximately 20 μg/100 μL. Polylysine-coated yttrium silicate SPA beads (Amersham) were added to the membrane mix to a concentration of 0.4 mg/100 μL and finally ^3H-PGD2 was added to the membrane/SPA bead mix to 3.6 nM. 100 μL of the membrane/SPA bead/^3H-PGD2 mix was added to each well of the non-surface binding plates containing the diluted compound or controls. The plates were incubated for 2 hours at room temperature with shaking and then the plates were counted on a Microbeta scintillation counter (Perkin Elmer) for 1 min per well.
IC50 values were determined from the experimental results by nonlinear regression using Prism 4.0 software. The IC50 values were then used in conjunction with the Kd for hCRTH2 and the ^3H-PGD2 concentration used in the experiment to calculate the Ki for each compound.

`CCCc1nc2cc(N(Cc3ccccc3)C(=O)c3ccccc3F)ccc2n1CC(=O)O` [Example 64, {5-[Benzyl-(2-fluoro-benzoyl)-amino]-2-propyl-benzoimidazol-1-yl}-acetic acid]: the Ki is greater than 10000 nM.

`CCCc1nc2cc(N(Cc3ccccc3Cl)S(=O)(=O)c3ccc(F)cc3)ccc2n1CC(=O)O` [Example 41, {5-[(2-Chloro-benzyl)-(4-fluoro-benzenesulfonyl)-amino]-2-propyl-benzoimidazol-1-yl}-acetic acid]: the Ki was less than 100 nM.

Regarding `CCCc1nc2cc(N(Cc3ccccc3)C(=O)C3CCCC3)ccc2n1CC(=O)O` [Example 60, [5-(Benzyl-cyclopentanecarbonyl-amino)-2-propyl-benzoimidazol-1-yl]-acetic acid], the Ki was less than 10000 nM.

For `CCCc1nc2cccc(N(Cc3ccccc3)S(=O)(=O)c3ccc(F)cc3)c2n1CC(=O)O` [Example 40, {7-[Benzyl-(4-fluoro-benzenesulfonyl)-amino]-2-propyl-benzoimidazol-1-yl}-acetic acid], the Ki was greater than 10000 nM.

Take `CCCC(C)c1nc2cc(NS(=O)(=O)c3ccc(F)cc3)ccc2n1CC(=O)O` (stereo not shown) [Example 2, [5-(4-Fluoro-benzenesulfonylamino)-2-(1-methyl-butyl)-benzoimidazol-1-yl]-acetic acid]: the Ki was less than 1000 nM.

On to `CCCc1nc2cc(N(Cc3ccccc3C(F)(F)F)S(=O)(=O)c3ccc(F)cc3)ccc2n1CC(=O)O` [Example 45, {5-[(2-Trifluoromethyl-benzyl)-(4-fluoro-benzenesulfonyl)-amino]-2-propyl-benzoimidazol-1-yl}-acetic acid], for which the inhibitory constant (Ki) was less than 1000 nM.

For the molecule `CCCc1nc2cc(N(Cc3ccc(F)cc3)C(=O)C3CC3)ccc2n1CC(=O)O` [Example 31, {5-[Cyclopropanecarbonyl-(4-fluoro-benzyl)-amino]-2-propyl-benzoimidazol-1-yl}-acetic acid], the Ki was less than 1000 nM.

Take `CCCc1nc2cc(N(Cc3ccc(C#N)cc3)S(=O)(=O)c3ccc(F)cc3)ccc2n1CC(=O)O` [Example 52, {5-[(4-Cyano-benzyl)-(4-fluoro-benzenesulfonyl)-amino]-2-propyl-benzoimidazol-1-yl}-acetic acid]: the Ki was less than 100 nM.

Turning to `C=CCOC(=O)NCCc1nc2cc(NS(=O)(=O)c3ccc(F)cc3)ccc2n1CC(=O)O` [Example 11, [2-(2-Allyloxycarbonylamino-ethyl)-5-(4-fluoro-benzenesulfonylamino)-benzoimidazol-1-yl]-acetic acid], the Ki was less than 10000 nM.

Take `CCCc1nc2cc(N(Cc3cccc(Cl)c3)S(=O)(=O)c3ccc(F)cc3)ccc2n1CC(=O)O` [Example 42, {5-[(3 -Chloro-benzyl)-(4-fluoro-benzenesulfonyl)-amino]-2-propyl-benzoimidazol-1-yl}-acetic acid]: the Ki was less than 100 nM.

As to `CCCCc1nc2cc(NS(=O)(=O)c3ccc(F)cc3)ccc2n1CC(=O)O` [Example 12, [2-Butyl-5-(4-fluoro-benzenesulfonylamino)-benzoimidazol-1-yl]-acetic acid], the inhibition constant Ki is less than 1000 nM.

`CC/C=C/c1nc2cc(NS(=O)(=O)c3ccc(F)cc3)ccc2n1CC(=O)O` [Example 6, [2-But-1-enyl-5-(4-fluoro-benzenesulfonylamino)-benzoimidazol-1-yl]-acetic acid]: the inhibition constant Ki was less than 10000 nM.

In the case of `CCCc1nc2cc(N(Cc3ccc(F)cc3)C(=O)COC)ccc2n1CC(=O)O` [Example 30, {5-[(4-Fluoro-benzyl)-(2-methoxy-acetyl)-amino]-2-propyl-benzoimidazol-1-yl}-acetic acid], the inhibitory constant (Ki) is less than 1000 nM.

With `CCCc1nc2cc(N(Cc3ccc(F)cc3)C(C)=O)ccc2n1CC(=O)O` [Example 33, {5-[Acetyl-(4-fluoro-benzyl)-amino]-2-propyl-benzoimidazol-1-yl}-acetic acid], the inhibition constant (Ki) is less than 100 nM.

On to `CCCc1nc2c(N(C(C)C)S(=O)(=O)c3cccc(F)c3)cccc2n1CC(=O)O` [Example 38, {4-[(3-Fluoro-benzenesulfonyl)-isopropyl-amino]-2-propyl-benzoimidazol-1-yl}-acetic acid], for which the inhibition constant Ki is less than 10000 nM.

In the case of `CCCc1nc2cc(N(Cc3ccccc3C#N)S(=O)(=O)c3ccc(F)cc3)ccc2n1CC(=O)O` [Example 54, {5-[(2-Cyano-benzyl)-(4-fluoro-benzenesulfonyl)-amino]-2-propyl-benzoimidazol-1-yl}-acetic acid], the Ki is less than 1000 nM.

On to `CCCCC(CC)c1nc2cc(NS(=O)(=O)c3ccc(F)cc3)ccc2n1CC(=O)O` (stereo not shown) [Example 10, [2-(1-Ethyl-pentyl)-5-(4-fluoro-benzenesulfonylamino)-benzoimidazol-1-yl]-acetic acid], for which the Ki was greater than 10000 nM.

Regarding `CCCc1nc2cc(N(Cc3ccccc3)C(=O)c3sccc3C)ccc2n1CC(=O)O` [Example 69, {5-[Benzyl-(3-methyl-thiophene-2-carbonyl)-amino]-2-propyl-benzoimidazol-1-yl}-acetic acid], the Ki was less than 100 nM.

`CCCc1nc2cc(N(CC3COc4ccccc4O3)S(=O)(=O)c3ccc(F)cc3)ccc2n1CC(=O)O` (stereo not shown) [Example 23, {5-[(2,3 -Dihydro-benzo[1,4]dioxin-2-ylmethyl)-(4-fluoro-benzenesulfonyl)-amino]-2-propyl-benzoimidazol-1-yl}-acetic acid]: the inhibitory constant (Ki) is less than 100 nM.

As for `C/C=C/CN(c1ccc2c(c1)nc(CCC)n2CC(=O)O)S(=O)(=O)c1ccc(F)cc1` [Example 56, {5-[But-2-enyl-(4-fluoro-benzenesulfonyl)-amino]-2-propyl-benzoimidazol-1-yl}-acetic acid], the Ki is less than 100 nM.

As to `CCCc1nc2cc(N(Cc3ccccc3)C(=O)c3ccc(F)c(F)c3)ccc2n1CC(=O)O` [Example 67, {5-[Benzyl-(3,4-difluoro-benzoyl)-amino]-2-propyl-benzoimidazol-1-yl}-acetic acid], the inhibition constant (Ki) was less than 1000 nM.

In the case of `CCCc1nc2cc(N(Cc3ccccc3)S(=O)(=O)c3ccc(F)cc3)ccc2n1CC(=O)O` [Example 14, {5-[Benzyl-(4-fluoro-benzenesulfonyl)-amino]-2-propyl-benzoimidazol-1-yl}-acetic acid], the Ki was less than 100 nM.

Source of the values: US7732618B2, “Benzimidazole acetic acids exhibiting CRTH2 receptor antagonism and uses thereof” (Wyeth, priority 2004, dated 2010).
